Where a SMILES comes first, the peptide text is derived from it. Where no end group is shown, it is not given here. The star is where a group is joined. Succinimide(1-Et,3-yl) = CCN1C(=O)CC(*)C1=O

In one test the target is T1, human CRHR2 (Homo sapiens, UniProt Q13324).
T1 construct: expressed in transfected cells
T1 sequence (Q13324 1-411): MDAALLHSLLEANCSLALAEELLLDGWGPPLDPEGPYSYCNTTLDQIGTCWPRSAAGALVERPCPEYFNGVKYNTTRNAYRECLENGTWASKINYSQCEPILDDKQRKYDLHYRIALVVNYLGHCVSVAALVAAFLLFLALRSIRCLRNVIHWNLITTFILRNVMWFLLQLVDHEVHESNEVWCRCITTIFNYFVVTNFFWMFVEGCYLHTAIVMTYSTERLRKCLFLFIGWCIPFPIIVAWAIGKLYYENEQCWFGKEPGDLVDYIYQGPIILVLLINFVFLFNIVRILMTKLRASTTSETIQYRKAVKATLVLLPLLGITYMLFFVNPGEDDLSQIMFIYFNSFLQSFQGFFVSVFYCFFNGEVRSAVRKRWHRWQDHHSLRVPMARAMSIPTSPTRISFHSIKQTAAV
Nature of the test: cAMP assay, h-CRHR2 transfected SK-N-MC cells. Format: cell-based. The conditions noted are these: Table 13; for EC50: cysteine mutation, N-ethylmaleimide capping, pegylation, read-out: pA50 (converted); for Log DR [M]: h-SCP control pA50 minus test compound pA50 within the same assay batch. Summed up:
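SK-N-MC cells stably expressing human CRHR2 were treated with peptides (1 pM to 1 μM) for 60 min at 37 °C in IBMX-containing medium, with 10 μM forskolin as positive control. Cells were lysed with 0.5 M HCl and cAMP measured by [125I]-cAMP competition flash plate. A50 came from Hill-equation fits, normalised to h-SCP maximum.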
A general note: Changes in cAMP serve as a functional read-out for many G protein-coupled receptors.

Test [1] deals with T2, human corticotrophin releasing hormone receptor type 2 (CRHR2) (human) (UniProt Q13324).
T2 sequence (looked up): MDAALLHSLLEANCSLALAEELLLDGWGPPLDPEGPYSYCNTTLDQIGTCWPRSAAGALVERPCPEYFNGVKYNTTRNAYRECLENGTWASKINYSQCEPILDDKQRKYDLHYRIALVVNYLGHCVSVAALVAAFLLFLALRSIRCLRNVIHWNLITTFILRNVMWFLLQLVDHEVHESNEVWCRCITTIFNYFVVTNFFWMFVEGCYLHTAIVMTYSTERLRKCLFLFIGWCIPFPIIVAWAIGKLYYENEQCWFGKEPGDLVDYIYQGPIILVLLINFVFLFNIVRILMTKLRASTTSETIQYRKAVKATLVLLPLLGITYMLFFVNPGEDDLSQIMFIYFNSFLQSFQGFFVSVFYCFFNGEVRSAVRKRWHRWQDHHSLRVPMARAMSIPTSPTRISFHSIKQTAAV
Description: radioligand competition against [125I]-anti-sauvagine-30, membranes of SK-N-MC cells with human CRHR2. Background: In a radioligand displacement assay an active substance lowers the binding of a labelled ligand.

In test [2] the target is T2, human corticotrophin releasing hormone receptor type 2 (CRHR2) (human). Description: cell-based or functional assay.
Test [3] has as its target T3, human corticotrophin releasing hormone receptor type 1 (CRHR1) (human, UniProt P34998 24-415).
T3 sequence (looked up): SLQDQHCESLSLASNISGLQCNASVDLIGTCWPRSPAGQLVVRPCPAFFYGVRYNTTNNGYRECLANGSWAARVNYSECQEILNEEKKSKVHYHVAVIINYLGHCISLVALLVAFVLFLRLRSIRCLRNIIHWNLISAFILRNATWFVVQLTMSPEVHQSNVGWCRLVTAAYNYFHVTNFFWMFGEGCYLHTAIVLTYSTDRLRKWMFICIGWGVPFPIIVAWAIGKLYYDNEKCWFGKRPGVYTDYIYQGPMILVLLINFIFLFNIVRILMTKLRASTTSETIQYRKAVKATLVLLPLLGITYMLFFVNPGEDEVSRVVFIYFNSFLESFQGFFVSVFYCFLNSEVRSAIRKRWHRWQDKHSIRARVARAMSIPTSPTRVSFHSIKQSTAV
Description: cell-based or functional assay.

Test [4] has as its target T4, human corticotrophin releasing hormone receptor type 2 (CRHR2) (human, UniProt Q13324 1-411).
T4 sequence (looked up): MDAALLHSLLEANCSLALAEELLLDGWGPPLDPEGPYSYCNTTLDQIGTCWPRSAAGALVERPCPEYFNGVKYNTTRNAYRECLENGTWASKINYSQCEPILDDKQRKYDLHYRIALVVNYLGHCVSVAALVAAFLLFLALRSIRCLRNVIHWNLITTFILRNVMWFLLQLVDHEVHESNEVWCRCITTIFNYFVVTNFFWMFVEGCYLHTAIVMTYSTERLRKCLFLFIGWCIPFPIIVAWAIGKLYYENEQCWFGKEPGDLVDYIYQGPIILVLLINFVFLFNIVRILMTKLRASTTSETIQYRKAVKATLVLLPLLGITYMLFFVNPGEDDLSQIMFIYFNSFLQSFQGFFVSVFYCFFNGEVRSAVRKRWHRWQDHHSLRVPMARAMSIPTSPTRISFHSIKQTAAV
Nature of the test: cell-based or functional assay.

On to `CC[C@H](C)[C@H](NC(=O)[C@H](CCC(N)=O)NC(=O)[C@H](C)NC(=O)[C@H](CCSC)NC(=O)[C@H](CC(C)C)NC(=O)[C@H](Cc1c[nH]cn1)NC(=O)[C@H](C)NC(=O)[C@H](CC(N)=O)NC(=O)[C@H](C)NC(=O)[C@H](C)NC(=O)[C@H](C)NC(=O)[C@H](CCC(N)=O)NC(=O)[C@H](C)NC(=O)[C@H](CCCNC(=N)N)NC(=O)[C@H](CC(C)C)NC(=O)[C@H](CC(N)=O)NC(=O)[C@H](CCCCN)NC(=O)[C@H](C)NC(=O)[C@H](CCCCN)NC(=O)[C@H](C)NC(=O)[C@H](CSC1CC(=O)N(CC)C1=O)NC(=O)[C@H](CC(N)=O)NC(=O)[C@H](Cc1ccccc1)NC(=O)[C@H](CC(C)C)NC(=O)[C@H](CC(C)C)NC(=O)[C@H](CC(N)=O)NC(=O)[C@H](CCSC)NC(=O)[C@@H](NC(=O)[C@H](CC(N)=O)NC(=O)[C@@H](NC(=O)[C@@H]1CCCN1C(=O)[C@@H](NC(=O)[C@H](CC(=O)O)NC(=O)[C@H](CC(C)C)NC(=O)[C@H](CO)NC(=O)[C@H](CC(C)C)NC(=O)[C@@H](NC(=O)[C@H](Cc1ccccc1)NC(=O)[C@H](CCCCN)NC(=O)[C@@H](N)[C@@H](C)O)[C@@H](C)O)C(C)C)[C@@H](C)O)[C@@H](C)CC)C(N)=O` (stereo partly shown) [SEQ ID NO: 51, TKFTL SLDVP TNIMN LLFNC(-NES) AKAKN LRAQA AANAH LMAQI-NH2] (H-TKFTLSLDVPTNIMNLLFNC(Succinimide(1-Et,3-yl))AKAKNLRAQAAANAHLMAQI-NH2; N-terminus assumed), for which, on human CRHR2, the EC50 was 1.62 nM and the “Log DR [M]” value is 0.68.
For “H-TKFTLSLDVPTNIMCLLFNIAKAKNLRAQAAANAHLMAQI-NH2 [SEQ ID NO: 16, TKFTLSLDVPTNIMCLLFNIAKAKNLRAQAAANAHLMAQI-NH2]”, in that order: 1.17 nM and 0.76.
For “TKFTLSLDVPTNIMNLLFNICKAKNLRAQAAANAHLMAQI-NH2 [SEQ ID NO: 22, TKFTLSLDVPTNIMNLLFNICKAKNLRAQAAANAHLMAQI-NH2]” the same measures were 0.676 nM and 0.52.
With “TKFTLSLDVPTNIMNLLFNIAKAKNLRAQAAANAHLMAQC-NH2 [SEQ ID NO: 41, TKFTLSLDVPTNIMNLLFNIAKAKNLRAQAAANAHLMAQC-NH2]”, on human CRHR2, the EC50 was 35.5 nM and the “Log DR [M]” value is on record as 2.07.
For “TKFCLSLDVPTNIMNLLFNIAKAKNLRAQAAANAHLMAQI-NH2 [SEQ ID NO: 5, TKFCLSLDVPTNIMNLLFNIAKAKNLRAQAAANAHLMAQI-NH2]”, in that order: 1.17 nM and 0.76.
For `CC[C@H](C)[C@H](NC(=O)[C@H](CCC(N)=O)NC(=O)[C@H](C)NC(=O)[C@H](CCSC)NC(=O)[C@H](CC(C)C)NC(=O)[C@H](Cc1c[nH]cn1)NC(=O)[C@H](C)NC(=O)[C@H](CC(N)=O)NC(=O)[C@H](CSC1CC(=O)N(CC)C1=O)NC(=O)[C@H](C)NC(=O)[C@H](C)NC(=O)[C@H](CCC(N)=O)NC(=O)[C@H](C)NC(=O)[C@H](CCCNC(=N)N)NC(=O)[C@H](CC(C)C)NC(=O)[C@H](CC(N)=O)NC(=O)[C@H](CCCCN)NC(=O)[C@H](C)NC(=O)[C@H](CCCCN)NC(=O)[C@H](C)NC(=O)[C@@H](NC(=O)[C@H](CC(N)=O)NC(=O)[C@H](Cc1ccccc1)NC(=O)[C@H](CC(C)C)NC(=O)[C@H](CC(C)C)NC(=O)[C@H](CC(N)=O)NC(=O)[C@H](CCSC)NC(=O)[C@@H](NC(=O)[C@H](CC(N)=O)NC(=O)[C@@H](NC(=O)[C@@H]1CCCN1C(=O)[C@@H](NC(=O)[C@H](CC(=O)O)NC(=O)[C@H](CC(C)C)NC(=O)[C@H](CO)NC(=O)[C@H](CC(C)C)NC(=O)[C@@H](NC(=O)[C@H](Cc1ccccc1)NC(=O)[C@H](CCCCN)NC(=O)[C@@H](N)[C@@H](C)O)[C@@H](C)O)C(C)C)[C@@H](C)O)[C@@H](C)CC)[C@@H](C)CC)C(N)=O` (stereo partly shown) [SEQ ID NO: 45, TKFTLSLDVPTNIMNLLFNIAKAKNLRAQAAC(-NES)NAH LMAQI-NH2] (H-TKFTLSLDVPTNIMNLLFNIAKAKNLRAQAAC(Succinimide(1-Et,3-yl))NAHLMAQI-NH2; N-terminus assumed) the same measures were 0.331 nM and −0.01.
As to “TKFTLSLDVPTNIMNLLFNCAKAKNLRAQAAANAHLMAQI-NH2 [SEQ ID NO: 21, TKFTLSLDVPTNIMNLLFNCAKAKNLRAQAAANAHLMAQI-NH2]”, at human CRHR2, the EC50 is 1.78 nM and the “Log DR [M]” value was found to be 0.77.
For `CC[C@H](C)[C@H](NC(=O)[C@H](CCC(N)=O)NC(=O)[C@H](C)NC(=O)[C@H](CCSC)NC(=O)[C@H](CC(C)C)NC(=O)[C@H](CSC1CC(=O)N(CC)C1=O)NC(=O)[C@H](C)NC(=O)[C@H](CC(N)=O)NC(=O)[C@H](C)NC(=O)[C@H](C)NC(=O)[C@H](C)NC(=O)[C@H](CCC(N)=O)NC(=O)[C@H](C)NC(=O)[C@H](CCCNC(=N)N)NC(=O)[C@H](CC(C)C)NC(=O)[C@H](CC(N)=O)NC(=O)[C@H](CCCCN)NC(=O)[C@H](C)NC(=O)[C@H](CCCCN)NC(=O)[C@H](C)NC(=O)[C@@H](NC(=O)[C@H](CC(N)=O)NC(=O)[C@H](Cc1ccccc1)NC(=O)[C@H](CC(C)C)NC(=O)[C@H](CC(C)C)NC(=O)[C@H](CC(N)=O)NC(=O)[C@H](CCSC)NC(=O)[C@@H](NC(=O)[C@H](CC(N)=O)NC(=O)[C@@H](NC(=O)[C@@H]1CCCN1C(=O)[C@@H](NC(=O)[C@H](CC(=O)O)NC(=O)[C@H](CC(C)C)NC(=O)[C@H](CO)NC(=O)[C@H](CC(C)C)NC(=O)[C@@H](NC(=O)[C@H](Cc1ccccc1)NC(=O)[C@H](CCCCN)NC(=O)[C@@H](N)[C@@H](C)O)[C@@H](C)O)C(C)C)[C@@H](C)O)[C@@H](C)CC)[C@@H](C)CC)C(N)=O` (stereo partly shown) [SEQ ID NO: 43, TKFTLSLDVPTNIMNLLFNIAKAKNLRAQAAANAC(-NES) LMAQI-NH2] (H-TKFTLSLDVPTNIMNLLFNIAKAKNLRAQAAANAC(Succinimide(1-Et,3-yl))LMAQI-NH2), in that order: 0.162 nM and −0.32.

B1: human urocortin 2 (peptide)
peptide: IVLSLDVPIGLLQILLEQARARAAREQATTNARILARV-NH2
With B1, the pKI in test [1] was 7.74 -log10(M). Further, the pA50 is 9.51 -log10(M) in test [2] and 6.02 -log10(M) in test [3].

B2: Stresscopin-like peptide with shortened amino acid sequence, 36 aa, SEQ ID NO: 109 (peptide)
peptide: LSLDVPTNIMNLLFNIAKAKNLRAQAAANAHLMAQI-NH2
For B2, the pA50 in test [4] is 7.34 -log10(M).

B3: Stresscopin-like peptide with shortened amino acid sequence, 39 aa, SEQ ID NO: 107 (peptide)
peptide: KFTLSLDVPTNIMNLLFNIAKAKNLRAQAAANAHLMAQI-NH2
On to B3, for which the pA50 in test [4] was 9.25 -log10(M).

B4: Stresscopin-like peptide with shortened amino acid sequence, 37 aa, SEQ ID NO: 108 (peptide)
peptide: TLSLDVPTNIMNLLFNIAKAKNLRAQAAANAHLMAQI-NH2
Turning to B4, in test [4], the pA50 was 8.49 -log10(M).
